Laboratory results as given in patent US20120107417A1, “Effective Antitumor Treatments” (PHARMA MAR, S.A., priority 2000, published 2012).
Like-named read-outs stand apart in the source and are kept apart here.

Columns and labels:
HS-18 cells = assay: Cell cycle analysis (propidium iodide, FACS), HS-18; assay type: cell-based, human
Procedure: (§1) Exponentially growth cells were treated with or without drugs for several hours. Cells were then collected and fixed with ice-cold 70% methanol. DNA was stained with propidium iodide as described previously. Ten thousand stained cells were analyzed on a Becton Dickinson fluorescence-activated cell sorter (FACS).

liver = conditions: rat
Procedure: In the light of the antiinflammatory activity of dex, we investigated its effect on liver damage induced by ET-743 in the rat. Female Wistar rats received a single iv dose of ET-743 (40 μg/kg). Some rats were pretreated with a single oral dose of dex either at 1, 5, 10 or 20 mg/kg 24 h prior to ET-743 treatment. Liver pathology and plasma concentrations of alkaline phophatase (ALP), aspartate aminotransferase (GOT) and total bilirubin (TB) were assessed up to 3 days post ET-743 administration. Conventional histological sections of the livers were examined by light microscopy.

TE 671 cells = assay: Clonogenic assay ET-743/DOX, TE 671; assay type: cell-based, human; conditions: 1 hr exposures, isobologram analysis and Combination Index
Procedure: In vitro: The effect of each drug or combination after 1 hr exposures was evaluated by clonogenic assay.

breast carcinoma (MX-1) = conditions: Hendriks et al. 1999; cited from earlier work
sc transplanted TE671 = assay: ET-743/DDP against sc transplanted TE671; assay type: in vivo, human; conditions: single drugs at MTD or combination
NSCL (LX-1) = assay: NSCL tumor, Et743 and DDP; assay type: in vivo; conditions: Et743 alone vs DDP followed by Et743
From the text: (§2) Osteosarcoma xenografts produced similar results of 17% vs. 43%. […] The one exception was in NSCL were Et743 alone was not active (62% T/C) but DPP followed by Et743 produced CR (<1% T/C). In renal xenografts Et743 alone was very active (22% T/C) but Et743 followed by VINB also produced CR (<1% T/C). Separate studies are underway with other standard agents in breast, renal, melanoma and gastric tumor xenografts.

HT-1080 = assay: SRB cytotoxicity assay and Chou-Talalay combination index, HT-1080; assay type: cell-based, human
Procedure: (§3) Soft tissue sarcoma cell lines, HT-1080 and HS-18 were maintained as monolayer cultures in RP<I-1640 containing 10% fetal bovine serum.
(§4) Cytotoxicity to drugs was determined by SRB cytotoxicity assay carried out in 96-well microtiter plates as described. Cells were plated in duplicate wells (5000 cells/well) and exposed to drugs at different concentrations. Cells were fixed with 50% TCA solution for 1 h and 0.4% SRB (Sigma) was added to each well. After a 30 min incubation, the plate were washed with 1% acetic acid and read at 570 nm on a Biowhitaker microplate reader 2001. The wells with cells containing no drugs and with medium plus drugs but no cells were used as positive and negative controls, respectively.
(§5) Cells were seeded into 96-well plates, as described previously. Cells were treated with seven different concentrations of the single drugs or combinations mixture at 1:100 (ET-743: the other drugs) molar ratio. After 72 h exposure, growth inhibition was measured using the SRB assay.
(§6) Using the same experimental setup described above, we exposed cells to three different concentrations of drugs which represents the IC25, IC50, IC75 of ET-743, DXR, TMTX and paclitaxel, respectively. After 24 hours pre-treatment with ET743 or the combination drug, the second drugs were added to the respective wells for 48 h. Growth inhibition was determined using the SRB assay.)
(§7) The CI was calculated by the Chou-Talalay equation, which takes into account both potency (Dm or IC50) and the shape of the dose effect curve (the m value). The general equation for the classic isobologram (CI=1) is given by:
(§8) CI=(D)1/(Dx)1+(D)2/(Dx)2 (A)

melanoma (MEXF 989) = conditions: Hendriks et al. 1999; cited from earlier work
ovarian 1 A 9 tumor = assay: ET-743/DDP against ovarian 1A9 tumor in vivo; parameters: species or system human; conditions: single agents
From the text: The ovarian 1 A 9 tumor that is normally resistant to both ET-743 and DDP as single agents, in combination produced a tumor growth inhibition greater than 50%.

osteosarcoma (OSA-FH) [1] = assay: Osteosarcoma xenografts; assay type: in vivo; conditions: DOX 1 hr pre-Et743 vs Et743 alone
From the text: as §2

[2] = test system: human ovarian carcinoma HOC8; assay: ET-743/DDP against orthotopically transplanted HOC8; assay type: in vivo; conditions: HOC8 orthotopic, peritoneal nodules with ascites; single agents
osteosarcoma (OSA-FH) [3] = assay: Hollow fiber (HF) model, osteosarcoma; assay type: in vivo
From the text: as §2

UV2237/ADR = assay: ET-743/doxorubicin against mdr-resistant subline UV2237/ADR in mice; assay type: in vivo, murine; conditions: alone or combination
fibrosarcoma (SW684) = assay: Hollow fiber (HF) model, fibrosarcoma; assay type: in vivo; conditions: DOX 8 mg/Kg 1 hr pre-Et743 0.2 mg/Kg vs Et743 alone, qdx5
From the text: as §2

xenograft = assay: Xenograft, Et743 pre-DDP (tumor not named); assay type: in vivo; conditions: xenograft data; Et743 pre-DDP vs Et743 alone
From the text: as §2

ovary (HOC 22) = conditions: Hendriks et al. 1999; cited from earlier work
renal (MRI-H-121) = assay: Renal xenografts, Et743 and VINB; assay type: in vivo; conditions: Et743 alone vs Et743 followed by VINB 6 mg/Kg
From the text: as §2

[4] = test system: human rabdomyosarcoma zenograft TE671; assay: ET-743/doxorubicin against TE671 xenograft in athymic (nude) mice; assay type: in vivo; conditions: for antitumor effect in words: TE671 in mice, alone or combination; for Log 10 Cell Kill (LCK) / tumor weight inhibition (TWI): single i.v. treatment at tumor approx. 100 mg, drug alone (ET-743 0.1 mg/kg; Dx 10 mg/kg)
Procedure: In vivo: Single iv treatments (ET-743, 0.1 mg/Kg; DOX, 10 mg/Kg) were administered in nude mice when xenograft tumors weighed approximately 100 mg.

HS-18 = assay: SRB cytotoxicity assay and Chou-Talalay combination index, HS-18; assay type: cell-based, human
Procedure: as §3, §4, §5, §6, §7, §8

chondrosarcoma (CSHA) = assay: Hollow fiber (HF) model, chondrosarcoma; assay type: in vivo
From the text: as §2

[5] = test system: murine fibrosarcoma UV2237; assay: ET-743/doxorubicin against murine fibrosarcoma UV2237 in mice; assay type: in vivo; conditions: alone or combination
B16 melanoma = assay: Activity of ET-743 against B16 melanoma with dexamethasone; assay type: in vivo; conditions: mice
Procedure: (§9) Plasma levels of ET-743 in rats which received dex (50 mg/kg) daily for 3 days prior to ET-743 were not decreased compared to those in rats on ET-743 alone. Furthermore, the activity of ET-743 against B16 melanoma implanted into mice was not impeded by dexamethasone.

NSCL (LXFL 529) = conditions: Hendriks et al. 1999; cited from earlier work
HT-1080 cells = assay: Cell cycle analysis (propidium iodide, FACS), HT-1080; assay type: cell-based, human
Procedure: as §1

NER deficient cells = NER deficient cells very sensitive to cisplatin; previous studies; cited from earlier work
ovary (MRI-H-1834) = assay: Hollow fiber (HF) model, ovary; assay type: in vivo; conditions: Et743 0.2 mg/Kg pre-DDP 12 mg/Kg vs Et743 alone
From the text: as §2

[6] = test system: mismatch repair (MMR) deficient cells; conditions: MMR deficient vs proficient cells; previous studies; cited from earlier work
[7] = Plasma levels of ET-743 in rats pretreated with dex; assay type: in vivo; conditions: rats given dex 50 mg/kg daily for 3 days prior to ET-743, compared to ET-743 alone
Procedure: as §9

[8] = Biodistribution/PK of DOX with ET-743 in nude mice with tumor xenografts; assay type: in vivo; conditions: DOX alone vs concomitant treatment with ET-743
From the text: ET-743 has shown activity in patients with sarcoma refractory to DOX and ifosfamide. In view of its potential as an effective drug, we investigated (1) the preclinical anti-tumor activity of ET-743/DOX combination against the human rhabdomyosarcoma TE 671 and (2) possible interactions between the drugs and their biodistribution in nude mice and tumor xenografts.
The pharmacokinetic (PK) evaluation of ET-743 given alone or in combination with DOX is underway.

[9] = 24 h after treatment with approximate IC50 dose
[10] = 72 h after treatment with approximate IC50 dose
[11] = ET-743 40 μg/kg iv alone, after 2 days
[12] = DOX 8 mg/Kg 1 hr pre-Et743 0.2 mg/Kg vs Et743 alone, qdx5
[13] = Homo sapiens, HT-1080, 72 h, read-out: IC50 for human soft tissue sarcoma cells, HT-1080
[14] = Homo sapiens, 72 h, read-out: IC50 for human soft tissue sarcoma cells, HS-18

## Ecteinascidin 743 [ET-743]
HS-18 cells; [9]
  % G1: 32.4%
  % G2-M: 20.0%
  % S phase: 47.6%
HS-18 cells; [10]
  % G1: 86.7%
  % G2-M: 4.9%
  % S phase: 8.4%
liver; [11]
  Plasma levels of ALP: significantly elevated
  Plasma levels of GOT: significantly elevated
liver; ET-743 40 μg/kg iv alone, commenced on day 2
  plasma TB concentrations: dramatic increase
liver; ET-743 40 μg/kg single iv alone, 2 days post treatment
  liver pathology: bile duct inflammation, striking degenerative changes in biliary epithelial cells and zones of hepatic necrosis
TE 671 cells
  anti-tumor activity / interaction in clonogenic assay: showed anti-tumor activity
Breast carcinoma (MX-1)
  in vivo tumor growth inhibition, single agent: complete remissions
Sc transplanted TE671
  antitumor effect in words: partially sensitive
NSCL (LX-1)
  T/C: 62%
HT-1080; HT 1080 fibrosarcoma cell line, read-out: IC50
  IC50: 0.01 nM
Melanoma (MEXF 989)
  in vivo tumor growth inhibition, single agent: complete remissions
Ovarian 1 A 9 tumor
  sensitivity of tumor to single agent: resistant
Osteosarcoma (OSA-FH) [1]
  T/C: 43%
[2]
  sensitivity of tumor to single agent: resistant
Osteosarcoma (OSA-FH) [3]; [12]
  T/C: 34%
Osteosarcoma (OSA-FH) [3]; Et743 pre-DDP and Et743 alone, equivalent activities
  T/C: 36%
UV2237/ADR
  antitumor effect in words: inactive or marginally active
Fibrosarcoma (SW684)
  T/C: 48%
xenograft
  T/C: 66%
Ovary (HOC 22)
  in vivo tumor growth inhibition, single agent: complete remissions
Renal (MRI-H-121)
  T/C: 22%
[4]
  antitumor effect in words: inactive or marginally active
  Log 10 Cell Kill (LCK): 0.132
  tumor weight inhibition (TWI): 46%
HS-18; HS-18 liposarcoma cell line, read-out: IC50
  IC50: 0.27 nM
Chondrosarcoma (CSHA); [12]
  T/C: 10%
Chondrosarcoma (CSHA); Et743 0.2 mg/Kg pre-DDP 12 mg/Kg vs Et743 alone
  T/C: 19%
[5]
  antitumor effect in words: effective
B16 melanoma
  activity of ET-743 against B16 melanoma: not impeded
NSCL (LXFL 529)
  in vivo tumor growth inhibition, single agent: complete remissions
HT-1080 cells; [9]
  % G1: 42.6%
  % G2-M: 21.3%
  % S phase: 36.1%
HT-1080 cells; [10]
  % G1: 83.1%
  % G2-M: 6.7%
  % S phase: 10.2%
NER deficient cells
  times less sensitive to ET-743: 6-8 times
Ovary (MRI-H-1834)
  T/C: 100%
[6]
  sensitivity to ET-743 compared with proficient cells: equally sensitive
[7]
  Plasma levels of ET-743: not decreased

## CC(=O)O[C@H]1C(=O)[C@@]2(C)[C@H]([C@H](OC(=O)c3ccccc3)[C@]3(O)C[C@H](OC(=O)[C@H](O)[C@@H](NC(=O)c4ccccc4)c4ccccc4)C(C)=C1C3(C)C)[C@]1(OC(C)=O)CO[C@@H]1C[C@@H]2O [Paclitaxel]
HS-18 cells; [9]
  % G1: 32.8%
  % G2-M: 15.5%
  % S phase: 52.5%
HS-18 cells; [10]
  % G1: 23.5%
  % G2-M: 26.2%
  % S phase: 58.7%
HT-1080; [13]
  IC50: 1.3 nM
HS-18; [14]
  IC50: 10 nM
HT-1080 cells; [9]
  % G1: 45.4%
  % G2-M: 17.3%
  % S phase: 37.3%
HT-1080 cells; [10]
  % G1: 86.0%
  % G2-M: 5.0%
  % S phase: 9.0%

## COc1cccc2c1C(=O)c1c(O)c3c(c(O)c1C2=O)C[C@@](O)(C(=O)CO)C[C@@H]3O[C@H]1C[C@H](N)[C@H](O)[C@H](C)O1 [Dx, doxorubicin]
HS-18 cells; [9]
  % G2-M: 25.0%
  % S phase: 64.9%
HS-18 cells; [10]
  % G1: 1.3%
  % G2-M: 34.9%
  % S phase: 63.8%
TE 671 cells
  anti-tumor activity / interaction in clonogenic assay: showed anti-tumor activity
HT-1080; [13]
  IC50: 25 nM
UV2237/ADR
  antitumor effect in words: inactive or marginally active
[4]
  antitumor effect in words: inactive or marginally active
  Log 10 Cell Kill (LCK): 0.33
  tumor weight inhibition (TWI): 50%
[8]
  PK profile of DOX (plasma and tumor concentrations): not influenced
HS-18; [14]
  IC50: 225 nM
[5]
  antitumor effect in words: effective
HT-1080 cells; [9]
  % G1: 36.1%
  % S phase: 17.5%
HT-1080 cells; [10]
  % G1: 46.2%
  % S phase: 5.3%

## N.N.[Cl][Pt][Cl] [DDP, cisplatin]
Sc transplanted TE671
  antitumor effect in words: partially sensitive
Ovarian 1 A 9 tumor
  sensitivity of tumor to single agent: resistant
[2]
  sensitivity of tumor to single agent: partially sensitive

## C[C@@H]1C[C@H]2[C@@H]3CCC4=CC(=O)C=C[C@]4(C)[C@@]3(F)[C@@H](O)C[C@]2(C)[C@@]1(O)C(=O)CO [dex, dexamethasone]
liver; dex 1 mg/kg single oral dose 24 h prior to ET-743
  protection against ET-743 liver damage: little protection
liver; dex 5 mg/kg single oral dose 24 h prior to ET-743
  protection against ET-743 liver damage: moderately protective
liver; dex 10 mg/kg single oral dose 24 h prior to ET-743 40 μg/kg iv
  effect on ET-743-induced histopathological changes and elevation of plasma ALP, GOT and TB: totally abrogated
liver; dex 20 mg/kg single oral dose 24 h prior to ET-743 40 μg/kg iv
  effect on ET-743-induced histopathological changes and elevation of plasma ALP, GOT and TB: totally abrogated

## COc1cc(NCc2ccc3nc(N)nc(N)c3c2C)cc(OC)c1OC [TMTX, trimetrexate]
HS-18 cells; [9]
  % G1: 44.2%
  % G2-M: 1.9%
  % S phase: 53.8%
HS-18 cells; [10]
  % G1: 35.5%
  % G2-M: 7.0%
  % S phase: 57.6%
HT-1080; [13]
  IC50: 6 nM
HS-18; [14]
  IC50: 70000 nM
HT-1080 cells; [9]
  % G1: 31.9%
  % G2-M: 11.3%
  % S phase: 56.8%
HT-1080 cells; [10]
  % G1: 32.0%
  % G2-M: 14.4%
  % S phase: 53.7%
